In paper PMC9313321 (Biomedicines, 2022):

What was measured:
Aβ42 self-aggregation = target: T1, Aβ42 self-aggregation (Homo sapiens, UniProt P05067); assay: biochemical; format: biochemical; conditions: for inhibition at 20 µM: read-out: Aβ42 Self-Aggreg. Inhib; for Aβ42 Self-Aggreg. Inhib: 20 μM inhibitor, absence of copper, thioflavin-T fluorescence, 37 °C 24 h
T1 construct: Beta-amyloid protein, fragment 1-42; purchased GeneCust
Procedure: The inhibition of Aβ42 aggregation and Cu(II)-induced Aβ42 aggregation, carried out by the RIV–BIM hybrids, was studied using a reported method based on the fluorescence emission of thioflavin T [52, 53].
Solutions of phosphate buffer 0.215 M at pH = 8.00, Na2CO3 300 μM in distilled water, NaOH 250 mM in distilled water, glycine-NaOH 50 mM buffer at pH = 8.50 and CuCl2 240 μM in phosphate buffer were prepared. Stock solutions of […] of the RIV–BIM compounds were prepared in MeOH (with 20% DMSO). Working solutions of 240 μM of the RIV–BIM hybrids were prepared by the proper dilution of their stock solutions with phosphate buffer. A working solution of glycine-NaOH 50 mM buffer at pH = 8.50 containing 5 μM of thioflavin T (ThT) was prepared daily. Aβ42 (GeneCust) was pre-treated with 1,1,1,3,3,3-hexafluoro-2-propanol (HFIP) to obtain a solution of 0.149 mM by brief sonication and vortexing, which was kept covered overnight at room temperature. From the Aβ42 solution, aliquots of 250 μL were placed into Eppendorf tubes under ice and set to evaporate inside a hood at room temperature overnight. When the contents of the Eppendorf tubes were dried, the Aβ42 aliquots were stored at −20 °C until needed. To obtain the Aβ42 working solution, the Aβ42 aliquots were dissolved with a freshly prepared mixture of 69.5 μL of CH3CN/Na2CO3 (300 μM)/NaOH (250 mM) (48.3/48.3/3.4, v/v/v) by brief sonication and vortexing to obtain an Aβ42 solution of 531.24 μM. To this solution, 392.5 μL of phosphate buffer was added, achieving an Aβ42 working solution of 80 μM. To prepare the incubations, three replicates of Aβ42 alone (30 μL Aβ42 80 μM + 30 μL phosphate buffer), Aβ42 with RIV–BIM (30 μL Aβ42 80 μM + 10 μL RIV–BIM 240 μM + 20 μL phosphate buffer), Aβ42 with copper (30 μL Aβ42 80 μM + 10 μL CuCl2 240 μM + 20 μL phosphate buffer) and Aβ42 with copper and RIV–BIM (30 μL Aβ42 80 μM + 10 μL CuCl2 240 μM + 10 μL RIV–BIM 240 μM + 10 μL phosphate buffer) were placed in Eppendorfs. To obtain the blank solutions, a similar number of Eppendorfs, replacing Aβ42 with phosphate buffer, were prepared. Incubations were performed in a water bath at 37 °C with agitation for 24 h. Afterwards, 180 μL of glycine-NaOH 50 mM buffer at pH = 8.50 containing 5 μM of ThT was added to each Eppendorf and then they were vortexed. Finally, 200 μL of solution from each Eppendorf was placed in the wells of a microplate and fluorescence measurements were monitored using a Spectramax Gemini EM (Molecular Devices) fluorimeter with an excitation wavelength of 446 nm and an emission wavelength of 485 nm. Blank signals were subtracted from the corresponding samples. The fluorescence intensity of the Aβ42 + RIV–BIM solution was compared to that of the Aβ42 solution to obtain the inhibition of Aβ42 self-aggregation for each compound. The fluorescence intensity of the Aβ42 + Cu(II) + RIV–BIM solution was compared to that of the Aβ42 + Cu(II) solution to obtain the inhibition of the Cu(II)-induced Aβ42 aggregation for each hybrid.
The anti-amyloidogenic capacity of the compounds was assessed in vitro using the thioflavin T (ThT) method. To record fluorescence emission, excitation (446 nm) and emission (485 nm) wavelengths were used. When ThT binds to amyloid fibrils, an increase in absorbance and emission of this dye occurs with concomitant red shifts of the respective spectra. The percent of inhibition of Aβ42 aggregation is shown in Table 1, and the assays were performed in the presence of 20 μM of inhibitor. These concentration conditions were used to overcome solubility problems of some compounds in the aqueous phosphate buffer working medium. […]. […]

[1] = Radical scavenging activity (DPPH method); conditions: read-out: Antioxid. EC50, 30 min, absorbance 517 nm
Procedure: To determine the radical scavenging activity (antioxidant activity) of the novel RIV–BIM hybrids, the DPPH method was performed as previously described in the literature [49]. Working solutions of 20 mg of the ligands were prepared daily in 10 mL of MeOH (with a 10% of DMSO). A working solution of 2 mg DPPH in 100 mL MeOH was prepared daily, and its absorbance was checked to be between 0.75 and 1.00 (a.u.). […] Each one of the calibrate points was kept for 30 min under darkness to allow the ligands to exert their antioxidant effects. After 30 min, an auto-zero was performed with MeOH in both sample and reference cells, using a UV–Vis spectrophotometer. […] The antioxidant activity (%AA) for each point was calculated using the following equation: %AA=ADPPH−Aligand/ADPPH×100
The radical scavenging activity of the RIV–BIM compounds was determined by a spectrophotometric method involving the 2,2-diphenyl-1-picrylhydrazyl (DPPH) free radical [35, 64].

T1 sequence (P05067 672-713 limits assumed): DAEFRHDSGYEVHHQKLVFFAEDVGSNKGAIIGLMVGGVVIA

SMILES | inhibition at 20 µM (Aβ42 self-aggregation) [%] | EC50 [1] [mM] | Aβ42 Self-Aggreg. Inhib (Aβ42 self-aggregation)
CCN(C)C(=O)Oc1cccc(NC(=O)c2ccc3nc(-c4ccccc4O)[nH]c3c2)c1 [Compound 4a, 3-(2-(2-Hydroxyphenyl)-1H-benzo[d]imidazole-6-carboxamido)phenyl Ethylmethylcarbamate] | 39 | – | –
CCN(C)C(=O)Oc1cccc(CNC(=O)c2ccc3nc(-c4ccccc4O)[nH]c3c2)c1 [Compound 4b, 3-((2-(2-Hydroxyphenyl)-1H-benzo[d]imidazole-6-carboxamido)methyl) Phenyl Ethylmethylcarbamate] | 39.6 | 0.9 ± 0.1 | –
CCN(C)C(=O)Oc1cccc(CCNC(=O)c2ccc3nc(-c4ccccc4O)[nH]c3c2)c1 [Compound 4c, 3-(2-(2-(2-Hydroxyphenyl)-1H-benzo[d]imidazole-6-carboxamido)ethyl) Phenylethylmethylcarbamate] | 21.2 | 10 | very weakly effective
CCN(C)C(=O)Oc1ccc(CCCNC(=O)c2ccc3nc(-c4ccccc4O)[nH]c3c2)cc1 [Compound 4d, 4-(3-(2-(2-Hydroxyphenyl)-1H-benzo[d]imidazole-6-carboxamido)propyl) Phenyl Ethylmethylcarbamate] | 20.1 | – | very weakly effective
CCN(C)C(=O)Oc1cccc(NC(=O)c2cccc3[nH]c(-c4ccccc4O)nc23)c1 [Compound 5a, 3-(2-(2-Hydroxyphenyl)-1H-benzo[d]imidazole-4-carboxamido)phenyl Ethylmethylcarbamate] | 44.5 | – | –
CCN(C)C(=O)Oc1cccc(CNC(=O)c2cccc3[nH]c(-c4ccccc4O)nc23)c1 [Compound 5b, 3-((2-(2-Hydroxyphenyl)-1H-benzo[d]imidazole-4-carboxamido)methyl) Phenyl Ethylmethylcarbamate] | 58.7 | – | –
CCN(C)C(=O)Oc1ccc(CCCNC(=O)c2cccc3[nH]c(-c4ccccc4O)nc23)cc1 [Compound 5d, 4-(3-(2-(2-Hydroxyphenyl)-1H-benzo[d]imidazole-4-carboxamido) Propyl) Phenyl Ethyl(methyl)carbamate] | 42.1 | – | –
